IC50 data for 40 molecules are collected here from patent US20240034736A1, “HSD17B13 INHIBITORS AND USES THEREOF” (FL2022-001, Inc., priority 2020, published 2024).

For the experiment, the target named is Recombinant human HSD17B13 enzyme (Homo sapiens (Human), UniProt Q7Z5P4). Kind of experiment: HSD17b13 NAD(P)H-Glo Biochemical Assay. Conditions: 50 uM estradiol, 1 mM NAD+; read-out: HSD17β13 IC50. The procedure: Recombinant human HSD17B13 enzyme. Substrate: estradiol (Sigma β-Estradiol E8875), 100 mM in DMSO. […] Assay buffer final concentration: 20 mM Tris pH7.4 with 0.002% Tween-20 and 0.02% BSA. […] Enzymatic activity detected by NAD(P)H-Glo™ Detection System (Promega G9062).
Sequence of Recombinant human HSD17B13 enzyme (Q7Z5P4 20-300): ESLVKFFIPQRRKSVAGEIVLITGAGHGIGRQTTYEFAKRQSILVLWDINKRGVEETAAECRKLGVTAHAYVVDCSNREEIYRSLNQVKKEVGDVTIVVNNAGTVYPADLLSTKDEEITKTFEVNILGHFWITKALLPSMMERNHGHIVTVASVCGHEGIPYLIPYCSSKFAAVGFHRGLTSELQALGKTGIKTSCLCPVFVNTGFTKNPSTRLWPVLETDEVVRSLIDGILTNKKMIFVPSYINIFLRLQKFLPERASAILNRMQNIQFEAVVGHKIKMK
Inhibitor compounds were serially diluted in DMSO and then further diluted in assay buffer to a 10× concentration consisting of 1% DMSO.
HSD17b13 enzyme was diluted in 1× assay buffer to the desired enzyme concentration based on the specific activity of the enzyme lot. 20 uL of diluted enzyme was added to each well along with 2.5 uL of 10× inhibitor solution. Assay plate was incubated at RT for 20 minutes, and then 2.5 uL of a 10× substrate/cofactor mix was added to each well for a final concentration of 50 uM estradiol and 1 mMNAD+. Assay plate was incubated at 37° C. for 3 hours. NAD(P)H-Glo™ Detection System reagents were prepared according to manufacturer's specifications, and 25 uL was added to each well. After incubating for 1 hour at RT, luminescence was measured.
`Oc1ccc(F)c(-n2ncc3cc(-c4ccc(O)c(Cl)c4)ccc32)c1` [Compound 1, 2-Chloro-4-(1-(2-fluoro-5-hydroxyphenyl)-1H-indazol-5-yl)phenol]: the IC50 was in the range of 1 to 30 µM.

As to `Oc1cc(-n2ncc3cc(-c4cccc(Cl)c4)ccc32)ccc1F` [Compound 1.01, 5-(5-(3-Chlorophenyl)-1H-indazol-1-yl)-2-fluorophenol], the IC50 was in the range of 0.1 to 1 µM.

With `COc1ccc(-c2ccc3c(cnn3-c3cc(O)c(F)c(C(F)(F)F)c3)c2)cc1Cl` [Compound 1.02, 5-(5-(3-Chloro-4-methoxyphenyl)-1H-indazol-1-yl)-2-fluoro-3-(trifluoromethyl)phenol], the IC50 is 0.1 to 1 µM.

Regarding `COc1ccc(-c2ccc3c(cnn3-c3cc(O)c(F)c(F)c3F)c2)cc1Cl` [Compound 1.03, 5-(5-(3-Chloro-4-methoxyphenyl)-1H-indazol-1-yl)-2,3,4-trifluorophenol], the IC50 fell in the range of 0.1 to 1 µM.

Consider `Oc1ccc(-c2ccc3c(cnn3-c3cc(O)c(F)c(C(F)(F)F)c3)c2)cc1Cl` [Compound 1.04, 5-(5-(3-Chloro-4-hydroxyphenyl)-1H-indazol-1-yl)-2-fluoro-3-(trifluoromethyl)phenol], for which the IC50 is less than 0.1 µM.

For the molecule `Oc1ccc(-c2ccc3c(cnn3-c3cc(O)c(F)c(F)c3F)c2)cc1Cl` [Compound 1.05, 5-(5-(3-Chloro-4-hydroxyphenyl)-1H-indazol-1-yl)-2,3,4-trifluorophenol], the IC50 was 0.1 to 1 µM.

On to `Oc1cc(-n2ccc3cc(-c4ccc(O)c(Cl)c4)ccc32)ccc1F` [Compound 1.06, 2-Chloro-4-(1-(4-fluoro-3-hydroxyphenyl)-1H-indol-5-yl)phenol], for which the IC50 lay within 0.1 to 1 µM.

For the molecule `COc1ccc(-c2ccc3c(cnn3-c3ccc(F)c(O)c3)c2)cc1Cl` [Compound 2, 5-(5-(3-Chloro-4-methoxyphenyl)-1H-indazol-1-yl)-2-fluorophenol], the IC50 is 0.1 to 1 µM.

Consider `O=C(O)Cc1ccc(-c2ccc3c(cnn3-c3ccc(F)c(O)c3)c2)cc1` [Compound 2.01, 2-(4-(1-(4-Fluoro-3-hydroxyphenyl)-1H-indazol-5-yl)phenyl)acetic acid], for which the IC50 fell in the range of 1 to 30 µM.

As to `Oc1cc(F)cc(-n2ncc3cc(-c4ccc(O)c(Cl)c4)ccc32)c1` [Compound 3, 2-Chloro-4-(1-(3-fluoro-5-hydroxyphenyl)-1H-indazol-5-yl)phenol], the IC50 lay in the range of 1 to 30 µM.

Take `Oc1ccc(-c2ccc3c(cnn3-c3cccc(O)c3F)c2)cc1Cl` [Compound 3.01, 3-(5-(3-Chloro-4-hydroxyphenyl)-1H-indazol-1-yl)-2-fluorophenol]: the half-maximal inhibitory concentration (IC50) is 0.1 to 1 µM.

With `Oc1ccc(-c2ccc3c(cnn3-c3ccc(C(F)(F)F)c(O)c3)c2)cc1Cl` [Compound 3.02, 2-Chloro-4-(1-(3-hydroxy-4-(trifluoromethyl)phenyl)-1H-indazol-5-yl)phenol], the IC50 was in the range of 1 to 30 µM.

As for `Oc1ccc(-c2ccc3c(cnn3-c3cc(O)c(F)c(F)c3)c2)cc1Cl` [Compound 3.03, 5-(5-(3-Chloro-4-hydroxyphenyl)-1H-indazol-1-yl)-2,3-difluorophenol], the IC50 lay within 0.1 to 1 µM.

As for `Oc1cc(-n2ncc3cc(-c4ccc(O)c(Cl)c4)ccc32)cc(C(F)(F)F)c1` [Compound 3.04, 2-Chloro-4-(1-(3-hydroxy-5-(trifluoromethyl)phenyl)-1H-indazol-5-yl)phenol], the IC50 lay in the range of 0.1 to 1 µM.

Take `Oc1cccc(-n2ncc3cc(-c4ccc(O)c(Cl)c4)ccc32)c1` [Compound 3.05, 2-Chloro-4-(1-(3-hydroxyphenyl)-1H-indazol-5-yl)phenol]: the IC50 was 1 to 30 µM.

As for `Oc1cc(-n2ncc3cc(-c4ccc(O)c(Cl)c4)ccc32)ccc1F` [Compound 4, 2-Chloro-4-(1-(4-fluoro-3-hydroxyphenyl)-1H-indazol-5-yl)phenol], the IC50 lay within 0.1 to 1 µM.

Regarding `Oc1ccc(-c2ccc3c(cnn3-c3ccc(F)c(O)c3)c2)cc1` [Compound 4.01, 2-Fluoro-5-(5-(4-hydroxyphenyl)-1H-indazol-1-yl)phenol], the IC50 was in the range of 0.1 to 1 µM.

In the case of `CS(=O)(=O)Nc1ccc(-c2ccc3c(cnn3-c3ccc(F)c(O)c3)c2)cc1` [Compound 4.02, N-(4-(1-(4-Fluoro-3-hydroxyphenyl)-1H-indazol-5-yl)phenyl)methanesulfonamide], the IC50 was in the range of 0.1 to 1 µM.

As for `Oc1cccc(-c2ccc3c(cnn3-c3ccc(F)c(O)c3)c2)c1` [Compound 4.03, 2-Fluoro-5-(5-(3-hydroxyphenyl)-1H-indazol-1-yl)phenol], the IC50 was in the range of 0.1 to 1 µM.

For the molecule `CS(=O)(=O)Nc1cccc(-c2ccc3c(cnn3-c3ccc(F)c(O)c3)c2)c1` [Compound 4.04, N-(3-(1-(4-Fluoro-3-hydroxyphenyl)-1H-indazol-5-yl)phenyl)methanesulfonamide], the IC50 lay within 1 to 30 µM.

For the molecule `Cc1nn(-c2ccc(F)c(O)c2)c2ccc(-c3ccc(O)c(Cl)c3)cc12` [Compound 4.05, 2-Chloro-4-(1-(4-fluoro-3-hydroxyphenyl)-3-methyl-1H-indazol-5-yl)phenol], the half-maximal inhibitory concentration (IC50) lay in the range of 0.1 to 1 µM.

Take `Oc1cc(-n2cc3cc(-c4ccc(O)c(Cl)c4)ccc3n2)ccc1F` [Compound 4.06, 2-Chloro-4-(2-(4-fluoro-3-hydroxyphenyl)-2H-indazol-5-yl)phenol]: the IC50 fell in the range of 0.1 to 1 µM.

Regarding `Cc1ccc(-c2ccc3c(cnn3-c3ccc(F)c(O)c3)c2)cc1` [Compound 4.07, 2-Fluoro-5-(5-(p-tolyl)-1H-indazol-1-yl)phenol], the IC50 was 0.1 to 1 µM.

With `Cc1cccc(-c2ccc3c(cnn3-c3ccc(F)c(O)c3)c2)c1` [Compound 4.08, 2-Fluoro-5-(5-(m-tolyl)-1H-indazol-1-yl)phenol], the IC50 is 1 to 30 µM.

Turning to `Oc1cc(-n2ncc3cc(-c4ccc(Cl)cc4)ccc32)ccc1F` [Compound 4.09, 5-(5-(4-Chlorophenyl)-1H-indazol-1-yl)-2-fluorophenol], the IC50 lay in the range of 0.1 to 1 µM.

In the case of `Oc1ccc(-c2ccc3c(cnn3-c3cc(O)c(F)c(F)c3)c2)c(Cl)c1` [Compound 4.10, 5-(5-(2-Chloro-4-hydroxyphenyl)-1H-indazol-1-yl)-2,3-difluorophenol], the IC50 is 0.1 to 1 µM.

For the molecule `Oc1cc(-n2ncc3cc(-c4ccccc4Cl)ccc32)ccc1F` [Compound 4.11, 5-(5-(2-Chlorophenyl)-1H-indazol-1-yl)-2-fluorophenol], the IC50 lay within 0.1 to 1 µM.

In the case of `Cc1ccccc1-c1ccc2c(cnn2-c2ccc(F)c(O)c2)c1` [Compound 4.12, 2-Fluoro-5-(5-(o-tolyl)-1H-indazol-1-yl)phenol], the IC50 is 0.1 to 1 µM.

Turning to `Oc1cc(-n2ncc3cc(-c4ccc(O)c(Cl)c4)ncc32)ccc1F` [Compound 4.13, 2-Chloro-4-(1-(4-fluoro-3-hydroxyphenyl)-1H-pyrazolo[3,4-c]pyridine-5-yl)phenol], the IC50 lay within 0.1 to 1 µM.

As to `Oc1cc(-n2nc(Cl)c3cc(-c4ccc(O)c(Cl)c4)ccc32)ccc1F` [Compound 4.14, 2-Chloro-4-(3-chloro-1-(4-fluoro-3-hydroxyphenyl)-1H-indazol-5-yl)phenol], the IC50 was 0.1 to 1 µM.

`N#Cc1nn(-c2ccc(F)c(O)c2)c2ccc(-c3ccc(O)c(Cl)c3)cc12` [Compound 4.15, 5-(3-Chloro-4-hydroxyphenyl)-1-(4-fluoro-3-hydroxyphenyl)-1H-indazole-3-carbonitrile]: the IC50 lay within 0.1 to 1 µM.

`Oc1ccc(-c2cc3cnn(-c4cc(O)c(F)c(F)c4)c3cc2Cl)cc1Cl` [Compound 4.16, 5-(6-Chloro-5-(3-chloro-4-hydroxyphenyl)-1H-indazol-1-yl)-2,3-difluorophenol]: the IC50 lay within 0.1 to 1 µM.

Take `Oc1ccc(-c2cc3cnn(-c4cc(O)c(F)c(F)c4)c3cc2Cl)c(Cl)c1` [Compound 4.17, 5-(6-Chloro-5-(2-chloro-4-hydroxyphenyl)-1H-indazol-1-yl)-2,3-difluorophenol]: the concentration for half-maximal inhibition (IC50) is 0.1 to 1 µM.

As to `Oc1cc(-n2ncc3cc(-c4ccc(O)c(Cl)c4)ccc32)ccc1F` [Compound 5, 2-Chloro-4-(1-(4-fluoro-3-hydroxyphenyl)-1H-indazol-5-yl)phenol], the IC50 lay within 0.1 to 1 µM.

For `Oc1cc(-n2ncc3cc(-c4ccc(Cl)c(O)c4)ccc32)ccc1F` [Compound 5.01, 2-Chloro-5-(1-(4-fluoro-3-hydroxyphenyl)-1H-indazol-5-yl)phenol], the IC50 is 0.1 to 1 µM.

Turning to `Cc1cc(-c2ccc3c(cnn3-c3ccc(F)c(O)c3)c2)ccc1O` [Compound 5.02, 4-(1-(4-Fluoro-3-hydroxyphenyl)-1H-indazol-5-yl)-2-methylphenol], the IC50 is 0.1 to 1 µM.

Turning to `COc1ccc(-c2ccc3c(cnn3-c3ccc(F)c(O)c3)c2)c(Cl)c1` [Compound 5.03, 5-(5-(2-Chloro-4-methoxyphenyl)-1H-indazol-1-yl)-2-fluorophenol], the IC50 lay within 0.1 to 1 µM.

With `NS(=O)(=O)c1ccc(-c2ccc3c(cnn3-c3ccc(F)c(O)c3)c2)cc1` [Compound 5.04, 4-(1-(4-Fluoro-3-hydroxyphenyl)-1H-indazol-5-yl)benzenesulfonamide], the IC50 fell in the range of 0.1 to 1 µM.

On to `CS(=O)(=O)c1ccc(-c2ccc3c(cnn3-c3ccc(F)c(O)c3)c2)cc1` [Compound 5.05, 2-Fluoro-5-(5-(4-(methylsulfonyl)phenyl)-1H-indazol-1-yl)phenol], for which the IC50 was in the range of 0.1 to 1 µM.

With `Oc1cc(-n2ncc3cc(-c4ccc(OC(F)(F)F)cc4Cl)ccc32)ccc1F` [Compound 5.06, 5-(5-(2-Chloro-4-(trifluoromethoxy)phenyl)-1H-indazol-1-yl)-2-fluorophenol], the IC50 was 0.1 to 1 µM.
